# Where a name gives a salt, the structure may show the parent alone.
# Columns and labels:
# [1] = cited from earlier work
# [2] = Hypothermia in mice after subcutaneous injection; assay type: in vivo; settings: Mus musculus, sc, dose depressing body temperature by 2° C. in two of four mice
# Method: Starting with a dose of 30 mg/kg, four mice are injected subcutaneously with test compound. Twenty minutes later, the number of animals whose body temperature has decreased by 2° C. or more are counted. […] The time for last statistically significant drug affect on mean body temperature is indicated in minutes. […] Potency is given as mg/kg ED50 (dose required to depress temperature in two of four mice) as measured by Spearman-Karber statistics.
# dopamine receptors = settings: background; cited from earlier work
# [3] = background, cited from earlier work
# 5-HT receptor = settings: J. Med. Chem., 30, 2105 (1987); cited from earlier work
compound,measurement,setting,value
COc1cccc2c1CCC(NC1CC1)C2C (stereo not drawn) [1-methyl-2-(cyclopropylamino)-5-methoxytetralin],local anesthetic activity,"[1]; J. Pharm. Sci., 67, 880-82 (1978)",local anesthetic activity
"CN(C)C1CCc2ccc(O)cc2C1(C)C (stereo not drawn) [1,1-Dimethyl-2-(N,N-dimethylamino)-7-hydroxytetralin]",analgesic and intestinal activity,"[1]; Chem. Ab., 79: 146294b",analgesic and intestinal movement accelerating actions
"C=CCN[C@H]1CCc2cccc(OC)c2[C@H]1CC=C (relative stereo) [Example 26, Compound 1, Cis-(±)-1,2,3,4-Tetrahydro-8-methoxy-N,1-di-(2-pro-penyl)-2-naphthalenamine Hydrochloride]",ED50,[2],2.31 mg/kg
CC1(C)CC(=O)N(CCCCN2CCN(c3ncccn3)CC2)C(=O)C1 [Gepirone],dopamine receptor activity,dopamine receptors,also has dopamine antagonist properties
same,anxiolytic / anti-anxiety activity,[3]; clinical,clinically demonstrated anti-anxiety activities
same,effect on depressive endpoints,[3]; some patients,ameliorative effects on some depressive endpoints in some patients
CN1CCc2cccc3c2[C@H]1Cc1ccc(O)c(O)c1-3 [apomorphine],dopamine receptor activity,dopamine receptors,able to activate the dopamine autoreceptors as well as the post synaptic dopamine receptors
O=C1CC2(CCCC2)CC(=O)N1CCCCN1CCN(c2ncccn2)CC1 [Buspirone],dopamine receptor activity,dopamine receptors,antagonizes dopamine receptors at the same dose it stimulates 5-HT1A receptors
CCCN(CCC)C1CCc2cccc(O)c2C1C (stereo not drawn) [8-hydroxy-1-methyl-2-(di-n-propylamino)tetralins],5-HT receptor agonism,5-HT receptor,5-HT receptor agonists

# Source: patent publication US6331636A, “Therapeutically useful 2-aminotetralin derivatives” (priority 1992, dated 2001)
